# Experimental data: patent US9492554B2, “Methods and compositions related to viral inhibition” (Clemson University Research Foundation (CURF), priority 2009, dated 2016)
# Legend:
# [1] = test system: cells
# [2] = test system: HIVNL4-3 in MT-2 cells; assay: Release of reverse transcriptase into the culture supernatant; format: cell-based, HIV; settings: for Release of reverse transcriptase into the culture supernatant, Day 2: mean of triplicate infections (SD), microM: DPA119 24, DPA52 25, DPA53 9, DPA54 17, DPA55 4, DPA56 8, DPA121 25, virus control 46,029; for Release of reverse transcriptase into the culture supernatant, Day 4 / Release of reverse transcriptase into the culture supernatant, Day 6: mean of triplicate infections; for Release of reverse transcriptase into the culture supernatant, Day 4: virus control 928,112; for Release of reverse transcriptase into the culture supernatant, Day 6: virus control 1,078,741
# Excerpt: The disclosed conjugates also reduce the amount of reverse transcriptase (RT) released into the cell culture supernatant upon in vitro cell culture experiments (Table 14 below). […] It is possible that even though the cells are positive for HIV, they are making much fewer unspliced transcripts, and thus the virion release into the media remains suppressed. […] Anti-HIV activities can be routinely checked by measuring the percentage of cells positive for HIV antigens using immunofluorescence assay (IFA) and for the release of pelletable reverse transcriptase (RT) into the supernatant. For these assays, 500,000 MT-2 cells in 1 ml of media were added to the wells of a 24 well tissue culture plate. Next, 0.5 ml of 4× concentrated compound was added to triplicate wells of the plate. The cells and compounds were incubated for 1 hr at 37 C. Finally, 0.5 ml of HIVNL4-3, produced in H9 cells (a CD4+ lymphoblastoid cell line), 100,000 cpm of RT activity per well, was added to each well. Virus control wells contained no compounds. This inoculum is at a multiplicity of infection less than 1. […] Next, cells were resuspended in the media and 0.5 mls of the total remaining volume was removed for IFA. Cells were combined from their triplicate infections, pelleted, and the enriched cells were air-dried onto glass slides. The dried cells were fixed in acetonemethanol (50:50). After fixing, cells were stained with HIV immunoglobulin, washed in PBS, and counter-stained with FITC-conjugated goat and human IgG. Slides were washed in PBS and the percentage of HIV-positive cells was determined by epifluorescence (Robinson et al. […] The supernatants from each well were precipitated at 4 C overnight in a solution including 30% polyethylene glycol. After precipitation, precipitate was lysed in a solution containing Triton X100, Tris buffer, and DTT. RT activity of each aliquot was determined as incorporation of 3H-dTTP into a poly rA-oligo dT template. After a one hour assay at 37 C, the incorporated dTTP was precipitated onto a ZetaProbe (BioRad) membrane. Slots were excised and placed into liquid scintillation cocktail. After overnight incubation, counts per minute for each sample was determined on a beta counter. Results were calculated as cpm/ml of original culture supernatant (Robinson et al.
# [3] = test system: HIVNL4-3 in MT-2 cells; assay: HIV antigen synthesis in treated cells, immunofluorescence assay (IFA); format: cell-based; settings: for percentage of cells positive for HIV antigens, Day 2: MT-2 cells, microM: DPA119 24, DPA52 25, DPA53 9, DPA54 17, DPA55 4, DPA56 8, DPA121 25, virus control 15%; for percentage of cells positive for HIV antigens, Day 4 / percentage of cells positive for HIV antigens, Day 6: same concentrations, virus control 100%
# Method: Anti-HIV activities can be routinely checked by measuring the percentage of cells positive for HIV antigens using immunofluorescence assay (IFA) and for the release of pelletable reverse transcriptase (RT) into the supernatant. For these assays, 500,000 MT-2 cells in 1 ml of media were added to the wells of a 24 well tissue culture plate. Next, 0.5 ml of 4× concentrated compound was added to triplicate wells of the plate. The cells and compounds were incubated for 1 hr at 37 C. Finally, 0.5 ml of HIVNL4-3, produced in H9 cells (a CD4+ lymphoblastoid cell line), 100,000 cpm of RT activity per well, was added to each well. Virus control wells contained no compounds. This inoculum is at a multiplicity of infection less than 1. On days 2, 4, and 6, 0.75 mls of supernatants were removed and placed into individual microfuge tubes for RT assay. Next, cells were resuspended in the media and 0.5 mls of the total remaining volume was removed for IFA. Cells were combined from their triplicate infections, pelleted, and the enriched cells were air-dried onto glass slides. The dried cells were fixed in acetonemethanol (50:50). After fixing, cells were stained with HIV immunoglobulin, washed in PBS, and counter-stained with FITC-conjugated goat and human IgG. Slides were washed in PBS and the percentage of HIV-positive cells was determined by epifluorescence (Robinson et al. J Acquire Immune Defic Syndr 2:33-42, 1989).
# [4] = target: HIV-1 TAR RNA; assay: HIV-1 TAR RNA competition FRET binding assay (Tat peptide probe); settings: 100 nM TAR RNA, 100 nM Tat peptide, 25° C., 60 min
# Method: Before used, HIV-1 TAR RNA (5′-GGC AGA UCUGAG CCU GGG AGC UCU CUG CC-3′, Thermo Scientific) in 10 μM batch in sterile water was heated to 95° C. for 4.5 min, and then cooled rapidly in ice bath for 5 min. This snap-cooling causes the RNA to adopt the kinetically favored hairpin rather than thermodynamically favored duplexes.
# The relative affinity of each polyamine for HIV-1 TAR RNA was determined using Fluorescence Resonance Energy Transfer (FRET)-based competitive binding assay with a fluorescein-labeled HIV-1 Tat peptide as described in the literature. The fluorescence experiments were performed with a Spectra Max Fluorimeter (Molecular Devices) at 25° C., with excitation and emission wavelengths of 495 and 570 nm, respectively. All samples were prepared in 96 well plates in 1×TK buffer (50 mM Tris, 20 mM KCl, pH=7.4) with 0.1% Trixton-100 (Sigma).
# To a solution of 100 nM HIV-1 TAR RNA and 100 nM fluorescein-labeled HIV-1 Tat peptide, appropriate concentrations (0 nM to 100 μM) of the antagonists were added at 25° C.; total volume of the incubation solution was 80 μL. After 60 min, fluorescence changes of the sample solution were determined by the Spectra Max Fluorimeter Detector.
# [5] = test system: TAR RNA; assay: UV melting of TAR RNA in presence of ligands (Tm, ΔTm); format: binding, HIV-1; settings: for ΔTm: Melting point stabilization of HIV-TAR RNA by Neo Neo dimers, Table 11
# Method: The reactions were done in the presence of 10 mM sodium cacodylate, 0.5 mM EDTA, 0.1 mM MgCl2 pH 7.0. The heating rate was 0.3° C./min.
# UV melting studies of TAR were performed in the presence and absence of various ligands (FIG. 13).
Compound,5% Toxicity microM [1] [µM],"Release of reverse transcriptase into the culture supernatant, Day 2 [2]","Release of reverse transcriptase into the culture supernatant, Day 4 [2]","Release of reverse transcriptase into the culture supernatant, Day 6 [2]","percentage of cells positive for HIV antigens, Day 2 [3]","percentage of cells positive for HIV antigens, Day 4 [3] [%]","percentage of cells positive for HIV antigens, Day 6 [3] [%]",IC50 ([4]; Table 18) [µM],other results
NCC1O[C@H](OC2C(N)C[C@@H](N)C(O)[C@H]2O[C@@H]2O[C@H](Cn3cc(CCCCCCc4cn(C[C@H]5O[C@@H](O[C@H]6C(O[C@H]7OC(CN)C(O)[C@H](O)C7N)C(N)C[C@@H](N)C6O)[C@@H](O)C5O[C@H]5O[C@@H](CN)C(O)C(O)C5N)nn4)nn3)C(O[C@H]3O[C@@H](CN)C(O)C(O)C3N)[C@@H]2O)C(N)[C@@H](O)C1O (some centres unmarked) [DPA 56],34,"15,989 (2,523) cpm/ml","105,704 cpm/ml","412,475 cpm/ml",5-7%,40,100,–,–
NCC1O[C@H](OC2C(N)C[C@@H](N)C(O)[C@H]2O[C@@H]2O[C@H](Cn3cc(-c4ccc(-c5cn(C[C@H]6O[C@@H](O[C@H]7C(O[C@H]8OC(CN)C(O)[C@H](O)C8N)C(N)C[C@@H](N)C7O)[C@@H](O)C6O[C@H]6O[C@@H](CN)C(O)C(O)C6N)nn5)cc4)nn3)C(O[C@H]3O[C@@H](CN)C(O)C(O)C3N)[C@@H]2O)C(N)[C@@H](O)C1O (some centres unmarked) [DPA 53],17,"8,880 (1,373) cpm/ml","45,539 cpm/ml","221,445 cpm/ml",2%,40,100,–,–
"NC[C@@H]1O[C@H](O[C@H]2[C@@H](O)[C@H](O[C@@H]3[C@@H](O)[C@H](N)C[C@H](N)[C@H]3O[C@H]3O[C@H](CO)[C@@H](O)[C@H](O)[C@H]3N)O[C@@H]2CO)[C@H](N)[C@@H](O)[C@@H]1O [DPA 502, paromomycin, reference compound]",–,–,–,–,–,–,–,11.4 ± 3.3,–
C/C(CCc1cn(C[C@H]2O[C@@H](O[C@H]3C(O[C@H]4OC(CN)C(O)[C@H](O)C4N)C(N)C[C@@H](N)C3O)[C@@H](O)C2O[C@H]2O[C@@H](CN)C(O)C(O)C2N)nn1)=C(/C)CCc1cn(C[C@H]2O[C@@H](O[C@H]3C(O[C@H]4OC(CN)C(O)[C@H](O)C4N)C(N)C[C@@H](N)C3O)[C@@H](O)C2O[C@H]2O[C@@H](CN)C(O)C(O)C2N)nn1 (some centres unmarked) [DPA 55],8,"20,072 (3,748) cpm/ml","107,933 cpm/ml","305,277 cpm/ml",3-5%,30,100,–,–
"lividomycin [DPA 507, reference compound]",–,–,–,–,–,–,–,92.5 ± 21.9,–
"CN[C@@H]1C[C@H](N)[C@@H](O)[C@H](OC2O[C@H](CO)[C@H](O)[C@@H]3OC4(O[C@H](C(N)CO)[C@H](O)[C@H](O)[C@H]4O)O[C@@H]23)[C@H]1O (some centres unmarked) [DPA 504, hygromycin, reference compound]",–,–,–,–,–,–,–,> 500,–
NCC1O[C@H](OC2C(N)C[C@@H](N)C(O)[C@H]2O[C@@H]2O[C@H](Cn3cc(COCCCCCCCCCCCCOCc4cn(C[C@H]5O[C@@H](O[C@H]6C(O[C@H]7OC(CN)C(O)[C@H](O)C7N)C(N)C[C@@H](N)C6O)[C@@H](O)C5O[C@H]5O[C@@H](CN)C(O)C(O)C5N)nn4)nn3)C(O[C@H]3O[C@@H](CN)C(O)C(O)C3N)[C@@H]2O)C(N)[C@@H](O)C1O (some centres unmarked) [DPA 60],–,–,–,–,–,–,–,–,ΔTm [5]: 3.24 °C; IC50 ([4]; Table 17): 0.067 ± 0.009 µM
NCC1O[C@H](OC2C(N)C[C@@H](N)C(O)[C@H]2O[C@@H]2O[C@H](Cn3cc(CCCCc4cn(C[C@H]5O[C@@H](O[C@H]6C(O[C@H]7OC(CN)C(O)[C@H](O)C7N)C(N)C[C@@H](N)C6O)[C@@H](O)C5O[C@H]5O[C@@H](CN)C(O)C(O)C5N)nn4)nn3)C(O[C@H]3O[C@@H](CN)C(O)C(O)C3N)[C@@H]2O)C(N)[C@@H](O)C1O (some centres unmarked) [DPA 54],69,"14,805 (1,309) cpm/ml","165,301 cpm/ml","427,475 cpm/ml",3-5%,80,100,–,–
"NC[C@H]1O[C@H](O[C@H]2[C@H](O)[C@@H](O[C@H]3O[C@H](CO)[C@@H](O)[C@H](N)[C@H]3O)[C@H](N)C[C@@H]2N)[C@H](O)[C@@H](O)[C@@H]1O [DPA 503, kanamycin, reference compound]",–,–,–,–,–,–,–,95.4 ± 20.4,–
NCC1O[C@H](OC2C(N)C[C@@H](N)C(O)[C@H]2O[C@@H]2O[C@H](Cn3cc(CCCc4cn(C[C@H]5O[C@@H](O[C@H]6C(O[C@H]7OC(CN)C(O)[C@H](O)C7N)C(N)C[C@@H](N)C6O)[C@@H](O)C5O[C@H]5O[C@@H](CN)C(O)C(O)C5N)nn4)nn3)C(O[C@H]3O[C@@H](CN)C(O)C(O)C3N)[C@@H]2O)C(N)[C@@H](O)C1O (some centres unmarked) [DPA 52],>138,"21,485 (4,574) cpm/ml","347,845 cpm/ml","268,357 cpm/ml",15%,100,100,–,–
NCC1O[C@H](OC2C(N)C[C@@H](N)C(O)[C@H]2O[C@@H]2O[C@H](Cn3cc(COCCCCCCCCOCc4cn(C[C@H]5O[C@@H](O[C@H]6C(O[C@H]7OC(CN)C(O)[C@H](O)C7N)C(N)C[C@@H](N)C6O)[C@@H](O)C5O[C@H]5O[C@@H](CN)C(O)C(O)C5N)nn4)nn3)C(O[C@H]3O[C@@H](CN)C(O)C(O)C3N)[C@@H]2O)C(N)[C@@H](O)C1O (some centres unmarked) [DPA 58],–,–,–,–,–,–,–,–,ΔTm [5]: 5.4 °C; IC50 ([4]; Table 17): 0.061 ± 0.013 µM
CN1CCN(c2ccc3nc(-c4ccc(OCc5cn(CCCCCCn6cc(CCCCc7cn(C[C@H]8OC(OC9C(O)[C@H](N)CC(N)[C@H]9O[C@H]9OC(CN)[C@@H](O)C(O)C9N)C(O)C8O[C@H]8OC(CN)[C@@H](O)C(O)C8N)nn7)nn6)nn5)cc4)[nH]c3c2)CC1 (some centres unmarked) [DPA115],–,–,–,–,–,–,–,–,"ΔTm (° C.) ([5]; TAR RNA with ligand vs control, Table 10): 4.1 °C; Tm (° C.) ([5]; TAR RNA with ligand, control without ligand 69.3): 73.4 °C; IC50 ([4]; Table 17): 99.4 ± 21 µM"
"ribostamycin [DPA 508, reference compound]",–,–,–,–,–,–,–,146 ± 38,–
